In patent US12139520B2 (priority 2020, dated 2024):
Bridge positions count the residues as written; N and C are the ends. Square brackets hold non-standard residues; d marks the D form. Peptide text beside a SMILES is read from it. Hyp = O=C(O)[C@@H]1C[C@@H](O)CN1; Cit = NC(=O)NCCC[C@H](N)C(=O)O

Experiments:
hAMY3 receptor = target: T1, hAMY3 receptor (Homo sapiens, UniProt O60896+P30988); assay: cAMP assay for in vitro receptor activation, hAMY3-R; assay type: cell-based; settings: cAMP assay, hAMY3 receptor; read-out: hAMY3R EC50
T1 sequence (P30988 25-474): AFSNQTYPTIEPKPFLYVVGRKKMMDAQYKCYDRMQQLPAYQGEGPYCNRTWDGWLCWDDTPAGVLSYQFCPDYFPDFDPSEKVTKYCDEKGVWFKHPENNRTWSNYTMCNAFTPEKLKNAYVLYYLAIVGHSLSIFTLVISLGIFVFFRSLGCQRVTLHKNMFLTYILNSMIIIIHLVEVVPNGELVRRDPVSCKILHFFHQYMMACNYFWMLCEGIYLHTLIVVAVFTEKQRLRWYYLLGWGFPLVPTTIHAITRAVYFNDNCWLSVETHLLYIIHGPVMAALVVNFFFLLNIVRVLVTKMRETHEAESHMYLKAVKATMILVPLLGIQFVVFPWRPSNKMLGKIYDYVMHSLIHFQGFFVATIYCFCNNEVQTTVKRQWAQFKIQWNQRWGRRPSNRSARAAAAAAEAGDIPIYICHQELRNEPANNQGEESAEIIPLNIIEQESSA
T1 sequence (O60896 24-148 partner): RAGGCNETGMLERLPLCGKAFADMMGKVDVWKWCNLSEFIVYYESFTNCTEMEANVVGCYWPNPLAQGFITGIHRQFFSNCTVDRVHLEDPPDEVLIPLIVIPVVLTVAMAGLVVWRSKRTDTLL
In short: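 Monoclonal cell line stably overexpressing hAMY3 receptor, plated in DPBS with 0.05% casein and 0.5 mM IBMX, was stimulated with graded compound doses for 30 min at room temperature. cAMP accumulation was read by time-resolved FRET one hour after adding detection reagents.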

hAM1 receptor = hAM1 receptor (Homo sapiens, UniProt O60895+Q16602); assay: cAMP assay for in vitro receptor activation, hAM1-R; assay type: cell-based; settings: cAMP assay, hAM1 receptor; read-out: hAM1R EC50
In short: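 Receptor activation, read as cAMP, was assessed in thawed cells of a monoclonal hAM1-overexpressing stable line, plated at 8000 cells/well in DPBS supplemented with 0.05% casein and 0.5 mM IBMX.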

[1] = Physical stability of peptide analogues (Thioflavin T fibrillation); assay type: physicochemical; settings: maximum ThT signal normalized between hAMY maximum and buffer background; 40° C., shaking, four days; pH 7 per table title
In short: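 Maximum ThT emission at 480 nm, after LOESS smoothing, is given as percent of the span from buffer background to hAMY. Conditions: 50 mM buffer at pH 4 or 7, 4 μM dye, 40 °C, repeated shaking, readings every 10 min for four days.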

Sequence of hAM1 receptor (Q16602 23-461): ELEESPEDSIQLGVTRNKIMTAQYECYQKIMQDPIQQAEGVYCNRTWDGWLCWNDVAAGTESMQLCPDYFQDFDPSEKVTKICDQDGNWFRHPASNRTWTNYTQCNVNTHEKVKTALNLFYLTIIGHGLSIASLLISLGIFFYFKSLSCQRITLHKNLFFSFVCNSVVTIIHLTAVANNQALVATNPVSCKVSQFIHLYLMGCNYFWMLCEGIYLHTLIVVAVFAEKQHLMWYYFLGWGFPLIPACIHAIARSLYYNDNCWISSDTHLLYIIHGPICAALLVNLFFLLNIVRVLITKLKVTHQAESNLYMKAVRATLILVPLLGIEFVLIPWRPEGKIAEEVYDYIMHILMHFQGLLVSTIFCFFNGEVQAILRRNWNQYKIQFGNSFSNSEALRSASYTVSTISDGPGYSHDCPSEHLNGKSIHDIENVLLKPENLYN
Sequence of hAM1 receptor (O60895 43-175 partner): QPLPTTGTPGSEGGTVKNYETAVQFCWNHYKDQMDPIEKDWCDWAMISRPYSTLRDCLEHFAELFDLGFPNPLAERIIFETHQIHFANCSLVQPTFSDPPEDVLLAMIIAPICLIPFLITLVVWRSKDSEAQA

| SMILES | EC50 (hAMY3 receptor) [nM] | EC50 (hAM1 receptor) [nM] | Max ThT signal (%) [1] [%] |
| --- | --- | --- | --- |
| CC[C@H](C)[C@H](NC(=O)[C@H](CCC(N)=O)NC(=O)[C@H](Cc1c[nH]cn1)NC(=O)[C@H](C)NC(=O)[C@H](CC(C)C)NC(=O)[C@H](CCCNC(=N)N)NC(=O)[C@H](CCC(N)=O)NC(=O)[C@@H](NC(=O)[C@@H](NC(=O)[C@@H]1CSSC[C@H](NC(=O)CN)C(=O)N[C@@H](CCCNC(=N)N)C(=O)N[C@@H]([C@@H](C)O)C(=O)NCC(=O)N[C@@H]([C@@H](C)O)C(=O)N1)[C@@H](C)O)C(C)C)C(=O)N[C@@H](Cc1ccc(O)cc1)C(=O)N[C@@H](CCC(N)=O)C(=O)N[C@@H](Cc1ccccc1)C(=O)N[C@H](C(=O)N[C@@H](CC(N)=O)C(=O)N[C@@H](CCCCN)C(=O)N[C@@H](CC(=O)O)C(=O)N[C@@H](CCCCN)C(=O)N[C@@H](CC(=O)O)C(=O)N[C@@H](CC(N)=O)C(=O)N[C@H](C(=O)N[C@@H](C)C(=O)N1CCC[C@H]1C(=O)N[C@@H](CCCNC(=N)N)C(=O)N[C@@H](CO)C(=O)N[C@@H](CCCCN)C(=O)N[C@H](C(=O)N[C@@H](CO)C(=O)N1CCC[C@H]1C(=O)N[C@@H](CCC(N)=O)C(=O)N[C@H](C(=O)N[C@@H](Cc1c[nH]c2ccccc12)C(N)=O)[C@@H](C)O)[C@@H](C)CC)C(C)C)[C@@H](C)O [compound 226] (H-GCRTGTCTVQRLAHQIYQFTNKDKDNVAPRSKISPQTW-NH2; disulfide 2-7; N-terminus assumed) | 0.186 | > 5000 | 27.000 |
| CC[C@H](C)[C@H](NC(=O)[C@H](CCC(N)=O)NC(=O)[C@H](Cc1c[nH]cn1)NC(=O)[C@H](C)NC(=O)[C@H](CC(C)C)NC(=O)[C@H](Cc1c[nH]c2ccccc12)NC(=O)[C@H](CCC(N)=O)NC(=O)[C@@H](NC(=O)[C@@H](NC(=O)[C@@H]1CSSC[C@H](NC(=O)CN)C(=O)N[C@@H](CCCNC(=N)N)C(=O)N[C@@H]([C@@H](C)O)C(=O)NCC(=O)N[C@@H]([C@@H](C)O)C(=O)N1)[C@@H](C)O)C(C)C)C(=O)N[C@@H](Cc1ccc(O)cc1)C(=O)N[C@@H](CCC(N)=O)C(=O)N[C@@H](Cc1ccccc1)C(=O)N[C@H](C(=O)N[C@@H](CC(=O)O)C(=O)N[C@@H](CCCCN)C(=O)N[C@@H](CC(=O)O)C(=O)N[C@@H](CCCCN)C(=O)N[C@@H](CC(=O)O)C(=O)N[C@@H](CC(N)=O)C(=O)N[C@H](C(=O)N[C@@H](C)C(=O)N1CCC[C@H]1C(=O)N[C@@H](CCCNC(=N)N)C(=O)N[C@H](C(=O)N[C@@H](CCCCN)C(=O)N[C@H](C(=O)NCC(=O)N1CCC[C@H]1C(=O)N[C@@H](CCC(N)=O)C(=O)NCC(=O)N[C@@H](Cc1ccc(O)cc1)C(N)=O)C(C)C)[C@@H](C)O)C(C)C)[C@@H](C)O [compound 354] (H-GCRTGTCTVQWLAHQIYQFTDKDKDNVAPRTKVGPQGY-NH2; disulfide 2-7; N-terminus assumed) | 0.091 | > 5000 | 17.400 |
| CC[C@H](C)[C@H](NC(=O)[C@H](CCC(N)=O)NC(=O)[C@H](Cc1c[nH]cn1)NC(=O)[C@H](C)NC(=O)[C@H](CC(C)C)NC(=O)[C@H](CCCNC(=N)N)NC(=O)[C@H](CCC(N)=O)NC(=O)[C@@H](NC(=O)[C@@H](NC(=O)[C@@H]1CSSC[C@H](NC(=O)CN)C(=O)N[C@@H](CCCNC(=N)N)C(=O)N[C@@H](Cc2c[nH]c3ccccc23)C(=O)NCC(=O)N[C@@H]([C@@H](C)O)C(=O)N1)[C@@H](C)O)C(C)C)C(=O)N[C@@H](Cc1ccc(O)cc1)C(=O)N[C@@H](CCC(N)=O)C(=O)N[C@@H](Cc1ccccc1)C(=O)N[C@H](C(=O)N[C@@H](CC(=O)O)C(=O)N[C@@H](CCCCN)C(=O)N[C@@H](CC(=O)O)C(=O)N[C@@H](CCCCN)C(=O)N[C@@H](CC(=O)O)C(=O)N[C@@H](CC(N)=O)C(=O)N[C@H](C(=O)N[C@@H](C)C(=O)N1CCC[C@H]1C(=O)N[C@@H](CCCNC(=N)N)C(=O)N[C@@H](CO)C(=O)N[C@@H](CCCCN)C(=O)N[C@H](C(=O)N[C@@H](CO)C(=O)N1CCC[C@H]1C(=O)N[C@@H](CCC(N)=O)C(=O)N[C@H](C(=O)N1C[C@H](O)C[C@H]1C(N)=O)[C@@H](C)O)[C@@H](C)CC)C(C)C)[C@@H](C)O [compound 150] (H-GCRWGTCTVQRLAHQIYQFTDKDKDNVAPRSKISPQT[Hyp]-NH2; disulfide 2-7; N-terminus assumed) | 0.04 | > 5000 | 18.200 |

More lines, in order of falling EC50 (hAMY3 receptor), values ahead:

| EC50 (hAMY3 receptor) [nM] | EC50 (hAM1 receptor) [nM] | Max ThT signal (%) [1] [%] | SMILES |
| --- | --- | --- | --- |
| 0.071 | > 5000 | 24.350 | CC[C@H](C)[C@H](NC(=O)[C@H](CCC(N)=O)NC(=O)[C@H](Cc1c[nH]cn1)NC(=O)[C@H](C)NC(=O)[C@H](CC(C)C)NC(=O)[C@H](Cc1c[nH]c2ccccc12)NC(=O)[C@H](CCC(N)=O)NC(=O)[C@@H](NC(=O)[C@@H](NC(=O)[C@@H]1CSSC[C@H](NC(=O)CN)C(=O)N[C@@H](CCCNC(=N)N)C(=O)N[C@@H]([C@@H](C)O)C(=O)NCC(=O)N[C@@H]([C@@H](C)O)C(=O)N1)[C@@H](C)O)C(C)C)C(=O)N[C@@H](Cc1ccc(O)cc1)C(=O)N[C@@H](CCC(N)=O)C(=O)N[C@@H](Cc1ccccc1)C(=O)N[C@H](C(=O)N[C@@H](CC(=O)O)C(=O)N[C@@H](CCCCN)C(=O)N[C@@H](CC(=O)O)C(=O)N[C@@H](CCCCN)C(=O)N[C@@H](CC(=O)O)C(=O)N[C@@H](CC(N)=O)C(=O)N[C@H](C(=O)N[C@@H](C)C(=O)N1CCC[C@H]1C(=O)N[C@@H](CCCNC(=N)N)C(=O)N[C@H](C(=O)N[C@@H](CC(N)=O)C(=O)N[C@H](C(=O)N[C@@H](CO)C(=O)N1CCC[C@H]1C(=O)N[C@@H](CC(N)=O)C(=O)NCC(=O)N1C[C@H](O)C[C@H]1C(N)=O)C(C)C)[C@@H](C)O)C(C)C)[C@@H](C)O [compound 358] (H-GCRTGTCTVQWLAHQIYQFTDKDKDNVAPRTNVSPNG[Hyp]-NH2; disulfide 2-7; N-terminus assumed) |
| 0.064 | > 5000 | 19.200 | CC[C@H](C)[C@H](NC(=O)[C@H](CCC(N)=O)NC(=O)[C@H](Cc1c[nH]cn1)NC(=O)[C@H](C)NC(=O)[C@H](CC(C)C)NC(=O)[C@H](CCCNC(N)=O)NC(=O)[C@H](CCC(N)=O)NC(=O)[C@@H](NC(=O)[C@@H](NC(=O)[C@@H]1CSSC[C@H](NC(=O)CN)C(=O)N[C@@H](CCCNC(=N)N)C(=O)N[C@@H](Cc2ccccc2)C(=O)NCC(=O)N[C@@H]([C@@H](C)O)C(=O)N1)[C@@H](C)O)C(C)C)C(=O)N[C@@H](Cc1ccc(O)cc1)C(=O)N[C@@H](CCC(N)=O)C(=O)N[C@@H](Cc1ccccc1)C(=O)N[C@H](C(=O)N[C@@H](CC(=O)O)C(=O)N[C@@H](CCCCN)C(=O)N[C@@H](CC(=O)O)C(=O)N[C@@H](CCCCN)C(=O)N[C@@H](CC(=O)O)C(=O)N[C@@H](CC(N)=O)C(=O)N[C@H](C(=O)N[C@@H](C)C(=O)N1CCC[C@H]1C(=O)N[C@@H](CCCNC(=N)N)C(=O)N[C@H](C(=O)N[C@@H](CC(N)=O)C(=O)N[C@H](C(=O)N[C@@H](CO)C(=O)N1CCC[C@H]1C(=O)N[C@@H](CCC(N)=O)C(=O)NCC(=O)N1C[C@H](O)C[C@H]1C(N)=O)[C@@H](C)CC)[C@@H](C)O)C(C)C)[C@@H](C)O [compound 291] (H-GCRFGTCTVQ[Cit]LAHQIYQFTDKDKDNVAPRTNISPQG[Hyp]-NH2; disulfide 2-7) |
| 0.006 | > 5000 | 10.600 | CC[C@H](C)[C@H](NC(=O)[C@H](CCC(N)=O)NC(=O)[C@H](Cc1c[nH]cn1)NC(=O)[C@H](C)NC(=O)[C@H](CC(C)C)NC(=O)[C@H](CCCNC(N)=O)NC(=O)[C@H](CCC(N)=O)NC(=O)[C@@H](NC(=O)[C@@H](NC(=O)[C@@H]1CSSC[C@H](NC(=O)[C@@H](N)CCCCN)C(=O)N[C@@H](CC(N)=O)C(=O)N[C@@H]([C@@H](C)O)C(=O)N[C@@H](C)C(=O)N[C@@H]([C@@H](C)O)C(=O)N1)[C@@H](C)O)C(C)C)C(=O)N[C@@H](Cc1ccc(O)cc1)C(=O)N[C@@H](CCC(N)=O)C(=O)N[C@@H](Cc1ccccc1)C(=O)N[C@H](C(=O)N[C@@H](CC(=O)O)C(=O)N[C@@H](CCCCN)C(=O)N[C@@H](CC(=O)O)C(=O)N[C@@H](CCCCN)C(=O)N[C@@H](CC(=O)O)C(=O)N[C@@H](CC(N)=O)C(=O)N[C@@H](C)C(=O)N[C@@H](C)C(=O)N1CCC[C@H]1C(=O)N1CCC[C@H]1C(=O)N[C@H](C(=O)N[C@@H](CC(N)=O)C(=O)N[C@H](C(=O)NCC(=O)N[C@@H](CO)C(=O)N[C@@H](CC(N)=O)C(=O)NCC(=O)N1C[C@H](O)C[C@H]1C(N)=O)C(C)C)[C@@H](C)O)[C@@H](C)O [compound 251] (H-KCNTATCTVQ[Cit]LAHQIYQFTDKDKDNAAPPTNVGSNG[Hyp]-NH2; disulfide 2-7; N-terminus assumed) |
